In patent US6262104A, “Diarylalkenylamine derivatives” (SmithKline Beecham p.l.c., priority 1995, dated 2001):
Where a name gives a salt, the structure may show the parent alone.

Molecular target: T1, delta (Mus musculus, UniProt P32300)
T1 construct: Vasa deferentia were obtained from CD-1 mice; from tissue; host or cells: vas deferens of CD-1 mice
Assay: Mouse vas deferens (MVD) bioassay, delta agonist/antagonist activity
Conditions: CD-1 mouse vasa deferentia, electrically stimulated, Mg2+-free Krebs buffer, 37° C.
Description: The delta agonist/antagonist activity of the compounds of the present invention is determined in the mouse vas deferens (MVD) bioassay as described below.
Vasa deferentia were obtained from CD-1 mice and were suspended in a Mg^2+ - free Krebsa buffer at 37° C. The tissues were electrically stimulated with pulse trains having the following parameters: train duration 50 ms, stimulus duration 2 ms, frequency of stimuli 50 Hz, maximal voltage 60-70 V, train frequency 0.1 Hz. Concentration response curves for each compounds were constructed cumulatively. Linear regression analysis and IC50 concentrations were evaluated according to Talarida and Murray (Manual of Pharmacological Calculations, Springer Verlag NY, 1981).

T1 sequence (P32300 whole entry): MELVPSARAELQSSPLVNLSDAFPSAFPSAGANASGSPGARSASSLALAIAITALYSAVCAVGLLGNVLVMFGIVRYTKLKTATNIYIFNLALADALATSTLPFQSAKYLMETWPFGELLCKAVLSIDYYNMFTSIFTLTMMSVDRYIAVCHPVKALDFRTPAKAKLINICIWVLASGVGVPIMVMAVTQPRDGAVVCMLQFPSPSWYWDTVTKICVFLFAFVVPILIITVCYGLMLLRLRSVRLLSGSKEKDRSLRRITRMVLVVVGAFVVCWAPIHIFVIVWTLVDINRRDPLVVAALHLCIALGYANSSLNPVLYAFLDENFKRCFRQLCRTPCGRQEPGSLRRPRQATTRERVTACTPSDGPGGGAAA

CCN(CC)C(=O)c1ccc(/C(=C\CN2CCCC2)c2cccc(O)c2)cc1 [Example 2, (E)-N,N-Diethyl-4-[[1-(3-hydroxyphenyl)-3-pyrrolidin-1-yl]-1-propenyl]benzamide citrate]
IC50: 30 nM
